Drawing on PubChem BioAssay (NCI), this text covers TGI and GI50 for 25 compounds.

The TGI is the concentration at which net growth stops. A high value points to lower sensitivity of the cells. As usually defined, the GI50 is the concentration giving 50% growth inhibition.

Each structure is given as a SMILES string. Values joined by “and” are separate entries in the source; they are usually repeats but may differ in a detail not shown here. Equal values may be shown once.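 Following 48 hours of exposure in 96-well plates, responses at five concentrations were used to interpolate endpoints linearly. Abbreviation: GI50, concentration required for 50% inhibition of growth. At the TGI there is no net growth.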 Where a SMILES comes first, the peptide text is derived from it. Bridges are numbered along the chain shown (N, C = ends). [ ]: non-standard residue; d: D form. Aib = CC(C)(N)C(=O)O; βAla = NCCC(=O)O

Common to all, as to assay: DTP human tumour cell line panel, 48 h
Assay [1] relates to OVCAR-3 ovarian.
The test system of assay [2] is MALME-3M melanoma.
Assay [3] concerns TK-10 renal.
Assay [4] deals with HL-60(TB) leukemia.
Assay [5] concerns SN12C renal.
For assay [6], the system named is LOX IMVI melanoma.
Assay [7] deals with SK-MEL-5 melanoma.
Assay [8] deals with UACC-257 melanoma.
The test system of assay [9] is SK-OV-3 ovarian.
Assay [10] relates to SF-295 CNS.
The test system of assay [11] is A498 renal.
Assay [12] deals with NCI/ADR-RES ovarian.
Assay [13] concerns T-47D breast.

Take `CC(C)[N+]([O-])(CCCNc1c2ccccc2nc2cccc([N+](=O)[O-])c12)C(C)C`: the TGI is 1.07 µM in assay [1]; 0.106 µM in assay [2]; 1.4 µM in [3]; 2.69 µM in [4]; 0.862 µM in [5]; 0.427 µM in assay [6]. For the same compound, the TGI in assay [7] came to 0.0628 µM; in assay [8] it was 0.333 µM; in [9], 2.08 µM; in [10] it was 0.904 µM; in assay [11], 0.289 µM; in assay [12], 8.76 µM.
On to `Cc1nc2sccn2c1C(=O)NN`, for which the total growth inhibition concentration (TGI) in assay [1], in assay [2], in [3], in assay [4], in [5] and in assay [6] was more than 100 µM each time. The TGI in [7], in assay [8], in [9] and in assay [10] was more than 100 µM throughout.
In the case of `CCOC1OC(COC(=O)C(C)(C)C)C(O)CC1n1cc(C)c(=O)[nH]c1=O` (configuration not stated), the TGI in assay [1], in assay [2], in assay [3], in assay [5], in [6] and in assay [7] was more than 100 µM in each case. Also, the TGI in assay [8], in assay [10], in [11], in assay [13] and in assay [12] was more than 100 µM in each case.
With `O=C1/C(=C/c2cccc(Cl)c2)CCCc2ccccc21`, the TGI in assay [1] turned out to be 55.8 µM; in [2], 33.8 µM; in assay [3] it was 34.9 µM; in assay [4], 30.7 µM; in assay [5], 32.3 µM; in assay [6], 32.8 µM. Also, the TGI is 46.5 µM in assay [8], more than 100 µM in assay [9], 31.6 µM in assay [10] and 35.9 µM in assay [12].
Take `OC12c3ccccc3C1CCCCC2N1CCCC1` (configuration not stated): the TGI in [2], in [3], in [4], in [5], in assay [6] and in assay [7] was more than 100 µM in each case. Further, the TGI in assay [8], in [9] and in assay [10] was more than 100 µM each time.
Take `FC1(F)[Se]C2C3CCC(C3)C2C1(F)F` (configuration not stated): the TGI in assay [1], in assay [2], in assay [3], in [5], in assay [6] and in [7] was more than 100 µM each time. The TGI in assay [9], in assay [10], in assay [11], in assay [13] and in assay [12] was more than 100 µM each time.
Take `COc1ccc(CNc2cnc3cc(N)ccc3n2)cc1`: the TGI in assay [1], in [2], in assay [3], in [4], in assay [5] and in assay [6] was more than 100 µM throughout. For the same compound, the TGI in assay [7] and in [10] was more than 100 µM each time.
Take `C=C(C)C12CC3CC(/C(=N/O)C(C1)/C3=N\O)[C@@]2(C)O` (some centres not stated): the TGI in assay [1], in assay [2], in [3], in [4], in assay [5] and in assay [6] was more than 100 µM in each case. For the same compound, the TGI in [7], in assay [8], in assay [9] and in assay [10] was more than 100 µM throughout.
Consider `COc1ccc2c3c1OC1C(F)C=CC4(O)C(C2)NCCC314` (configuration not stated), for which the TGI in assay [1] came out at 7.07 µM; in [2], 5.56 µM; in [3], 12.8 µM; in assay [5] it was 10.3 µM; in [6], 10.4 µM; in assay [7], 16.1 µM. Besides, the TGI came to 24.1 µM in assay [8]; 10.3 µM in [9]; 21.9 µM in [10]; 15.6 µM in assay [11]; 38.3 µM in assay [12].
For the compound `CC1(C)NC(=O)C(NC(=O)C(N)CC(=O)O)CCCCNC(=O)CCNC1=O` (configuration not stated) (H-DK[Aib][βAla]; lactam 2-C; configuration not given here), the TGI in assay [1], in assay [2], in [3], in assay [6], in assay [7] and in [8] was more than 100 µM throughout. The TGI in [9], in assay [10], in [11], in [13] and in assay [12] was more than 100 µM each time.
In the case of `COC(=O)[C@]12CC3C=CC1N(C3)C(CBr)c1c2n(S(=O)(=O)c2ccccc2)c2ccccc12` (some centres not stated), the TGI in assay [1], in assay [2], in assay [3], in assay [4], in assay [5] and in [6] was more than 100 µM in each case. Further, the TGI in assay [7], in assay [8], in assay [9], in assay [10] and in [12] was more than 100 µM throughout.
On to `CSC1=N/C(=C\c2ccc(Cl)cc2)C(=O)N1CN1CCCCC1`, for which the TGI was more than 100 µM in [1]; 91.7 µM in [2]; more than 100 µM in assay [3]; more than 100 µM in assay [5]; more than 100 µM in assay [6]; more than 100 µM in [7]. Further, the TGI in assay [9], in [10], in assay [11] and in assay [12] was more than 100 µM throughout.
Turning to `O=c1oc2ccc3ccccc3c2cc1-c1nnc(Nc2ccccc2)s1`, the TGI in assay [1] is 31.4 µM; in assay [3], 32.1 µM; in assay [5], more than 100 µM; in [8] it was more than 100 µM; in assay [10], 83.3 µM; in assay [11] it was 22.4 µM. Besides, the TGI in assay [13] and in assay [12] was more than 100 µM in each case.
Consider `CC(/C=C/C(=O)NO)=C\C(C)C(=O)c1ccc(N(C)C)cc1` (configuration not stated), for which the TGI in assay [2] amounted to 0.0239 µM; in [3] it was 0.107 µM; in assay [4] it was 2.53 µM; in [5] it was 0.206 µM; in assay [7], 0.187 µM; in assay [8], 0.387 µM. The total growth inhibition concentration (TGI) is 0.224 µM in [9], 0.454 µM in [10], 0.257 µM in [11] and more than 100 µM in assay [13].
`COc1ccc(C(c2ccccc2)(c2ccc(OC)cc2)N2C(=O)NC3C(CCCCC(=O)NCCCCCCOP(OCCC#N)N(C(C)C)C(C)C)SCC32)cc1` (configuration not stated): the TGI in assay [1] was 28.1 µM; in assay [2], 33.5 µM; in [3], 35.7 µM; in [4], 32.1 µM; in [6], 24 µM; in [7], 31 µM. The values for the total growth inhibition concentration (TGI) in assay [8], in assay [10] and in [11] were 42.6 µM, 31.2 µM and 35 µM, respectively.
Regarding `CC(=O)OC[C@H]1CN(OC(C)=O)C[C@@H](n2cc(C)c(=O)[nH]c2=O)O1`, the concentration for total growth inhibition (TGI) in assay [3], in assay [4], in [5], in [7], in assay [8] and in assay [9] was more than 100 µM throughout. Further, the TGI in [10], in assay [11] and in assay [13] was more than 100 µM throughout.
Consider `CC(C)(O)C(O)COc1c2c(cc3oc(=O)ccc13)OCO2` (configuration not stated), for which the TGI in assay [1], in [2], in assay [3], in assay [4], in assay [5] and in assay [6] was more than 100 µM each time. Moreover, the TGI in assay [7], in [8], in assay [9], in assay [10] and in [11] was more than 100 µM each time.
On to `Cc1ccc(CC(Cc2ccccc2C)C(=O)O)c(C(=O)O)c1` (configuration not stated), for which the total growth inhibition concentration (TGI) in assay [1], in assay [2], in assay [3], in [4], in assay [5] and in [6] was more than 100 µM each time. Moreover, the total growth inhibition concentration (TGI) in assay [7], in assay [8], in assay [10], in assay [11] and in assay [12] was more than 100 µM in each case.
Turning to `CSc1nc(-c2ccc(Cl)cc2)c(C#N)c(=O)n1C1OC(COC(C)=O)C(OC(C)=O)C(OC(C)=O)C1OC(C)=O` (configuration not stated), the total growth inhibition concentration (TGI) in assay [1] was 33.2 µM; in assay [2], more than 100 µM; in assay [3], more than 100 µM; in assay [4], more than 100 µM; in assay [5], more than 100 µM; in assay [7], more than 100 µM. The TGI was 38.8 µM and > 100 µM in assay [8]; 70.3 µM and > 100 µM in assay [9]; 39 µM and > 100 µM in assay [10]; 38.9 µM and > 100 µM in assay [11]. The GI50 in [2] is 30.7 µM and 77.8 µM; in assay [8], 14.5 µM and > 100 µM; in assay [9], 25.3 µM and > 100 µM; in [10] it was 14.8 µM and > 100 µM; in [11], 17.6 µM and > 100 µM.
As to `COc1ccccc1Nc1nc2c([nH]1)c(=O)n(C)c(=O)n2C`, the total growth inhibition concentration (TGI) in [2], in assay [3], in assay [4], in assay [5], in [6] and in [7] was more than 10 µM in each case. Also, the TGI in [8], in assay [9], in [10] and in assay [13] was more than 10 µM throughout.
Consider `CC(C)CC(NC(=O)C(C)(CI)Cc1ccccc1)C(=O)Nc1ccccc1` (configuration not stated), for which the TGI in assay [1], in [2], in assay [3], in assay [4], in [5] and in assay [6] was more than 100 µM in each case. Also, the total growth inhibition concentration (TGI) in assay [7], in assay [8], in assay [9], in assay [10], in [11] and in [12] was more than 100 µM each time.
As for `CSC12c3cc(C)n(-c4ccc([N+](=O)[O-])cc4)c3CC(C)(C)CN1C(=O)C2Oc1ccccc1` (configuration not stated), the total growth inhibition concentration (TGI) in [1], in assay [5], in assay [6], in [7], in assay [8] and in [10] was more than 100 µM throughout. Moreover, the TGI in assay [11], in assay [13] and in assay [12] was more than 100 µM in each case.
For `COc1cccc2c1c1ccc3c(c1n2C)C(=O)C=CC3=O`, the TGI in assay [1] was 30.5 µM; in assay [2] it was 27.1 µM; in [3], 33.3 µM; in assay [4], more than 100 µM; in [5] it was 41.5 µM; in assay [6] it was 32.2 µM. Further, the TGI in assay [7] was more than 100 µM; in assay [8], 30.3 µM; in [9] it was more than 100 µM; in [10], more than 100 µM; in [11], more than 100 µM.
For `CSc1ncnc2c1ncn2CCC(=O)O`, the TGI in assay [1], in assay [2], in [3], in [4], in assay [5] and in assay [6] was more than 100 µM throughout. In addition, the TGI in [7], in assay [8], in assay [9], in assay [10], in assay [11] and in assay [12] was more than 100 µM in each case.
Regarding `CC(=O)c1nc2ccccc2n1C(C)C(=O)c1ccccc1` (configuration not stated), the total growth inhibition concentration (TGI) in [1], in [2], in [3], in assay [4], in assay [5] and in [6] was more than 100 µM in each case. Also, the total growth inhibition concentration (TGI) in [8], in [9], in [10], in assay [11] and in [12] was more than 100 µM in each case.
